# Columns and labels:
# Type in all cases: cell-based, Human
# PC3 cells [1] = experiment: Lactate determination; conditions: 10 μM with respect to 3-BP, 6 h
# Experimental: PC3 cells were seeded at a density of 1×10^6 cells/mL and allowed to grow for 12 h at 37° C. under 5% CO2. Cells were treated with T-AuNP (1 mg/mL), NT-AuNP (1 mg/mL), T-3-BP-AuNP (14.1 μg/mL with respect to NP, 10 μM with respect to 3-BP), NT-3-BP-AuNP (13.7 μg/mL with respect to NP, 10 μM with respect to 3-BP), free 3-BP (10 μM) for 6 h at 37° C. After 6 h, the media was removed and the cells were homogenized. The lysate and the media supernatant were added to the enzyme and substrate working reagent mixture and incubated for 30 min. Lactate concentration was measured using Bio-Tek Synergy HT microplate reader at 450 nm and comparing to a standard curve.
# PC3 cells [2] = experiment: Apoptosis detection by flow cytometry (Annexin V-PI); conditions: 6 h, dark
# Experimental: PC3 cells were plated at a density of 1×10^6 cells/mL and allowed to grow for 14 h. Media was changed and cells were treated with T-AuNP (1 mg/mL), NT-AuNP (1 mg/mL), T-3-BP-AuNP (14.1 μg/mL with respect to NP, 10 μM with respect to 3-BP), NT-3-BP-AuNP (13.7 μg/mL with respect to NP, 10 μM with respect to 3-BP), free 3-BP (10 μM or 1 mM) for 6 h at 37° C. As positive controls, etoposide (100 μM, incubation time: 12 h) for apoptosis and H2O2 (1 mM, incubation time: 45 min) for necrosis were used. For apoptosis detection after laser treatment, cells were treated with T-AuNP (1 mg/mL), NT-AuNP (1 mg/mL), T-3-BP-AuNP (14.1 μg/mL with respect to NP, 10 μM with respect to 3-BP), NT-3-BP-AuNP (13.7 μg/mL with respect to NP, 10 μM with respect to 3-BP), free 3-BP (10 μM) for 4 h at 37° C., irradiated with laser of 660 nm for 1 min, and further incubated for 12 h. […] Cells were counted and resuspended in 1× annexinbinding buffer at a density of ˜1×10^6 cells/mL preparing a sufficient volume to have 100 μL per assay. To 100 μL of cell suspension, 5 μL Alexa Fluor® 488 annexin V and 1 μL 100 μg/mL PI working solution were added, incubated for 15 min at room temperature, followed by addition of 400 μL 1× annexin-binding buffer, gently mixing in ice, and the samples were analyzed on the flow cytometer immediately.
# PC3 cells [3] = experiment: MTT assay, PC3 cells; conditions: with respect to 3-BP, 72 h
# Experimental: (§1) Human prostate cancer PC3, DU145 cells and RAW 264.7 macrophages were procured from the American type culture collection (ATCC). DU145 cells were grown at 37° C. in 5% CO2 in Eagle's minimum essential medium (EMEM) supplemented with 10% fetal bovine serum (FBS) and 1% penicillin/streptomycin. PC3 cells were grown in Roswell Park Memorial Institute (RPMI) 1640 medium supplemented with 10% FBS and 1% penicillin/streptomycin. RAW 264.7 macrophages were cultured in RPMI media supplemented with 10% FBS and 1% penicillin/streptomycin. Cells were passed every 3 to 4 days and restarted from frozen stocks upon reaching pass number 20.
# (§2) Cytotoxicity profiles of T-AuNPs, NT-AuNPs, T-3-BPAuNPs, NT-3-BP-AuNPs, and 3-BP were studied using the MTT assay against prostate cancer PC3 and DU145 cell lines. Cells (2000 cells/well) were seeded on a 96-well plate in 100 μL of desired medium and incubated for 24 h. The cells were then treated with different constructs at varying concentrations and incubated for 12 h at 37° C. and the media was changed. […] The medium was removed, the cells were lysed with 100 μL of DMSO, and the absorbance of the purple formazan was recorded at 550 nm using a Bio-Tek Synergy HT microplate reader and background absorbance was measured at 800 nm. […] Cytotoxicity was expressed as mean percentage […] relative to the unexposed control±standard deviation (SD). […]
# PC3 cells [4] = experiment: CellTiter-Glo luminescent ATP quantification; conditions: 10 μM with respect to 3-BP, 6 h
# Experimental: PC3 cells were seeded at a density of 1×10^6 cells/mL in a 12 well plate and allowed to grow for 12 h at 37° C. under 5% CO2. Cells were treated with T-AuNP (1 mg/mL), NT-AuNP (1 mg/mL), T-3-BP-AuNP (14.1 μg/mL with respect to NP, 10 μM with respect to 3-BP), NT-3-BP-AuNP (13.7 μg/mL with respect to NP, 10 μM with respect to 3-BP), free 3-BP (10 μM) for 6 h at 37° C. in 5% CO2 atmosphere. Control wells containing medium without cells were used to obtain background luminescence value. Plates were then equilibrated at room temperature for ˜30 min. A volume of CellTiter-Glo reagent equal to the volume of cell culture medium present in each well was added, this mixtures were mixed for 2 min in a shaker to induce cell lysis. The plates were incubated at room temperature for additional 10 min to stabilize luminescent signal. Luminescence was recorded using a plate reader. ATP quantification was carried out from a standard curve using ATP disodium salt hydrate.
# PC3 cells [5] = experiment: Bioenergetic assay (Seahorse XF24, ECAR and OCR); conditions: 10 μM with respect to 3-BP, 6 h
# Experimental: Prior to the assay, XF sensor cartridges were hydrated. To each well of an XF utility plate, 1 mL of Seahorse Bioscience calibrant was added and the XF sensor cartridges were placed on top of the utility plate, and kept at 37° C. incubator without CO2 for a minimum of 12 h. PC3 cells were cultured in XF24-well cell culture microplates (Seahorse Bioscience) at a density of 5×10^4 cells/well (0.32 cm2) in 200 μL growth medium and then incubated for 24 h at 37° C. in 5% CO2 atmosphere. The three key parameters of glycolytic function: glycolysis, glycolytic capacity, and glycolytic reserve were assessed using a Seahorse XF glycolysis stress kit. After the cells were attached, an additional 100 μL growth medium was added and the cells were incubated for 24 h at 37° C. in 5% CO2 atmosphere. […] The OCR and the ECAR were measured simultaneously for 16 min to establish a baseline rate. Glycolysis, glycolytic capacity, and glycolytic reserve were calculated by subtracting the average rates before and after the addition of glucose (10 mM), ATP synthase inhibitor oligomycin (1.0 μM), and 2-deoxy-D-glucose (2-DG) (100 mM). These three compounds were injected consecutively with specific time gap and ECAR values were measured after each injection. […]
# DU145 cells = experiment: MTT assay, DU145 cells; conditions: with respect to 3-BP, 72 h
# Experimental: as §1, §2
compound,measurement,setting,value
"O=C(O)C(=O)CBr [3-BP, 3-bromopyruvate]",extracellular lactate level,PC3 cells [1],declined
same,intracellular lactate level,PC3 cells [1],declined
same,apoptotic activity,PC3 cells [2]; 10 μM,unable to show any apoptotic activity
same,apoptotic activity,PC3 cells [2]; 1 mM,significant apoptosis
same,IC50,PC3 cells [3],271 ± 9 µM
same,level of ATP,PC3 cells [4],decrease
same,glycolysis inhibition (ECAR response to glucose),PC3 cells [5],did not show any glycolysis inhibitory effect
same,IC50,DU145 cells,541 ± 37 µM
